Here are results for 12 molecules from ChEMBL document CHEMBL1201862, “PubChem BioAssay data set” (2004).

Test systems include A498; ACHN; CCRF-CEM; COLO 205; EKVX; HT-29; KM12; MDA-N; Malme-3M; OVCAR-4; RXF 393; SK-MEL-2; SK-MEL-5; SN12C; SW-620; UACC-62; Hs-578T; SF-539; SNB-75; T47D.
Test in all cases: DTP human tumour cell line panel, 48 h

The structures appear in SMILES notation.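 Compound exposure: 48 hours, 5 concentrations, 96-well plates. At the GI50, growth is halved.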 The source made the active and inactive calls. No stated cut-off is given here; in the data, active = GI50 up to about 1.1 µM and inactive = higher. Bounds are passed on as bounds.

As for `[N-]=[N+]=Nc1ccc2c(c1)Sc1ccccc1N2CCCCN1CCN(Cc2ccc(C(=O)c3ccc(CSCC(N)C(=O)O)cc3)cc2)CC1` (stereo unspecified), the GI50 was 18.5 µM (inactive) in the assay on A498; 31.6 µM (inactive) in the assay on ACHN; 14.3 µM (inactive) in the assay with CCRF-CEM; 13.6 µM (inactive) with COLO 205; 52.8 µM (inactive) in the assay on EKVX; 14 µM (inactive) in the assay on HT-29. Besides, the GI50 is 1.57 µM (inactive) in the assay on KM12; 12.8 µM (inactive) in the assay with MDA-N; > 10 µM (inactive) in the assay on Malme-3M; > 100 µM (inactive) with OVCAR-4; 46.7 µM (inactive) with RXF 393; 19.3 µM (inactive) with SK-MEL-2. Besides, the GI50 in the assay with SK-MEL-5 was 13.8 µM (inactive); with SN12C it was 31.3 µM (inactive); in the assay on SW-620 it was 1.87 µM (inactive); with UACC-62 it was 11.3 µM (inactive).
In the case of `COc1cc2c(cc1OCCCCOc1cc(-c3ccc(F)cc3)nc(C)n1)N=C[C@@H]1CCCN1C2=O`, the GI50 is 1.01 µM (active) with A498; 0.189 µM (active) with ACHN; 0.135 µM (active) in the assay on CCRF-CEM; 0.346 µM (active) with COLO 205; 1.66 µM (inactive) in the assay with EKVX; 0.442 µM (active) in the assay with HT-29. For the same molecule, the GI50 is 1.05 µM (active) in the assay with Hs-578T; 0.728 µM (active) with KM12; 0.82 µM (active) in the assay on Malme-3M; 0.26 µM (active) in the assay on OVCAR-4; 0.429 µM (active) in the assay on RXF 393; 0.927 µM (active) in the assay on SF-539. Besides, the GI50 in the assay on SK-MEL-2 is 0.853 µM (active); in the assay with SK-MEL-5 it was 0.593 µM (active); with SN12C it was 0.796 µM (active); in the assay with SNB-75, 0.723 µM (active); in the assay on SW-620 it was 0.855 µM (active); with T47D, 0.294 µM (active). Also, in the assay with UACC-62, the concentration for 50% growth inhibition (GI50) is 0.378 µM (active).
Turning to `CCc1n[nH]c(=O)n1N`, the GI50 in the assay on A498, with ACHN, in the assay with CCRF-CEM, with COLO 205, in the assay on EKVX and in the assay with HT-29 was > 100 µM (inactive) in each case. Moreover, the GI50 in the assay with Hs-578T, in the assay on KM12, in the assay with Malme-3M, in the assay with OVCAR-4, in the assay on SF-539 and with SK-MEL-2 was > 100 µM (inactive) in each case. The GI50 with SK-MEL-5, with SN12C, with SNB-75, in the assay with SW-620, in the assay on T47D and with UACC-62 was > 100 µM (inactive) in each case.
Take `C[C@@]12C(=O)OC(=O)[C@]1(C)[C@H]1CC[C@@H]2O1` [CANTHARIDIN]: the GI50 was 1.12 µM (inactive) with A498; 1.18 µM (inactive) in the assay on ACHN; 1.19 µM (inactive) in the assay on CCRF-CEM; 0.427 µM (active) with COLO 205; 0.45 µM (active) with EKVX; 1.66 µM (inactive) with HT-29. Further, the GI50 with KM12 was 5.42 µM (inactive); in the assay with MDA-N, 2.91 µM (inactive); in the assay with Malme-3M it was 1.34 µM (inactive); with OVCAR-4 it was 2.58 µM (inactive); in the assay with RXF 393, 0.484 µM (active); in the assay with SF-539, 2.04 µM (inactive). Besides, the GI50 in the assay with SK-MEL-2 is 1.45 µM (inactive); with SK-MEL-5, 0.973 µM (active); in the assay with SN12C, 2.01 µM (inactive); in the assay on SNB-75, 0.472 µM (active); in the assay with SW-620, 3.84 µM (inactive); with T47D it was 1.68 µM (inactive). For the same molecule, in the assay on UACC-62, the GI50 is 2.12 µM (inactive).
Regarding `C[C@]12CC[C@H]3[C@@H](CCC4=C/C(=N/OCCN5CCCCC5)CC[C@@]43C)[C@@H]1CC[C@@H]2O`, the GI50 in the assay with ACHN is 20.7 µM (inactive); in the assay on CCRF-CEM, 9.31 µM (inactive); in the assay with COLO 205 it was 16.1 µM (inactive); in the assay with EKVX, 27.3 µM (inactive); in the assay on HT-29, 1.37 µM (inactive); in the assay on KM12, 10.2 µM (inactive). Besides, the GI50 in the assay with MDA-N is 15 µM (inactive); with Malme-3M it was 15 µM (inactive); with OVCAR-4, 13.9 µM (inactive); in the assay on RXF 393, 11.8 µM (inactive); with SK-MEL-2 it was 14.6 µM (inactive); in the assay on SK-MEL-5, 8.63 µM (inactive). Further, the GI50 in the assay on SN12C is 17.4 µM (inactive); in the assay on SNB-75, 7.26 µM (inactive); with SW-620, 13.9 µM (inactive); in the assay on T47D, 28 µM (inactive); with UACC-62, > 10 µM (inactive).
For the molecule `Nn1c(CCCl)nc2c(Br)cc(Br)cc2c1=O`, the GI50 is 35.7 µM (inactive) in the assay on A498; 22.9 µM (inactive) in the assay with ACHN; 8.2 µM (inactive) in the assay with CCRF-CEM; 23.9 µM (inactive) in the assay on COLO 205; 29.8 µM (inactive) in the assay on EKVX; 32.7 µM (inactive) in the assay with HT-29. For the same molecule, the GI50 in the assay on KM12 was 18.7 µM (inactive); with Malme-3M, > 69.5 µM (inactive); in the assay on OVCAR-4 it was 19.1 µM (inactive); with RXF 393, 36.1 µM (inactive); in the assay with SF-539 it was 40.7 µM (inactive); with SK-MEL-2 it was 33.1 µM (inactive). The GI50 with SK-MEL-5 is 17.3 µM (inactive); in the assay with SN12C it was 30.8 µM (inactive); in the assay with SNB-75 it was 27.8 µM (inactive); in the assay on SW-620, 20.5 µM (inactive); with UACC-62, 31.9 µM (inactive).
Turning to `CN(C)c1ccc(C(=C(c2ccc(N(C)C)cc2)c2ccc(N(C)C)cc2)c2ccc(N(C)C)cc2)cc1`, the GI50 in the assay on A498 is 18.6 µM (inactive); in the assay with ACHN it was 11.5 µM (inactive); in the assay on CCRF-CEM it was 16.6 µM (inactive); with COLO 205 it was 0.568 µM (active); in the assay on EKVX, 18.7 µM (inactive); in the assay with HT-29, 13.8 µM (inactive). The GI50 was 18.5 µM (inactive) with KM12; 15 µM (inactive) in the assay on Malme-3M; 20.1 µM (inactive) in the assay on OVCAR-4; 11.7 µM (inactive) in the assay with RXF 393; 13.8 µM (inactive) in the assay on SF-539; 12.1 µM (inactive) in the assay on SK-MEL-2. Also, the GI50 was 16.3 µM (inactive) with SK-MEL-5; 16.2 µM (inactive) with SN12C; 13.5 µM (inactive) in the assay with SNB-75; 1.87 µM (inactive) in the assay on SW-620; 18.8 µM (inactive) in the assay with UACC-62.
As for `Cc1nn(C(=O)Cc2ccccc2)c2c1C(c1ccccc1O)SC(=N)N2` (stereo unspecified), the GI50 with A498, in the assay on ACHN, with CCRF-CEM, with COLO 205, in the assay on EKVX and in the assay with HT-29 was > 100 µM (inactive) in each case. The GI50 in the assay with Hs-578T, with KM12, in the assay with Malme-3M, in the assay with SF-539, with SK-MEL-5 and with SN12C was > 100 µM (inactive) in each case. The GI50 in the assay on SNB-75, in the assay with SW-620, in the assay on T47D and with UACC-62 was > 100 µM (inactive) throughout.
On to `Cc1cc2c(c3oc(C4(C)OC4C4OC4C)cc(=O)c13)C(=O)c1c(O)c(C3CC(C)(N(C)C)C(O)C(C)O3)cc(C3CC(N(C)C)C(O)C(C)O3)c1C2=O` (stereo unspecified), for which the GI50 in the assay with ACHN is 4.4e-05 µM (active); with CCRF-CEM, 0.0025 µM (active); in the assay on COLO 205, 9.53e-05 µM (active); in the assay on HT-29 it was 0.000175 µM (active); in the assay on Hs-578T it was 0.000349 µM (active); with RXF 393 it was 0.000104 µM (active). Further, the GI50 in the assay on SF-539 was 0.000531 µM (active); in the assay with SK-MEL-5, 0.00112 µM (active); with SN12C, 0.000136 µM (active); in the assay with SW-620, 0.0025 µM (active); in the assay on T47D, 0.00018 µM (active); in the assay on UACC-62 it was 6.43e-05 µM (active).
In the case of `COc1cc2cnc(-c3ccccc3)cc2cc1OC`, the GI50 with A498 was 0.252 µM (active); in the assay with ACHN, 23.3 µM (inactive); in the assay with COLO 205, 20.9 µM (inactive); with EKVX, 3.22 µM (inactive); in the assay with HT-29, 24.9 µM (inactive); with Hs-578T, 12.8 µM (inactive). Also, the GI50 is 26.9 µM (inactive) in the assay on KM12; 27.9 µM (inactive) with Malme-3M; 24.3 µM (inactive) with OVCAR-4; 37.2 µM (inactive) in the assay on RXF 393; 31.1 µM (inactive) in the assay on SF-539; 23 µM (inactive) in the assay on SK-MEL-2. Moreover, the GI50 with SK-MEL-5 was 11.8 µM (inactive); in the assay on SN12C it was 3.5 µM (inactive); with SNB-75, 41.1 µM (inactive); with SW-620, 32.4 µM (inactive); in the assay with T47D it was 26.7 µM (inactive); in the assay with UACC-62, 10 µM (inactive).
Consider `C[n+]1c2n(c3nc(N)[nH]c(=O)c31)C1OC(C2)C(O)C1O` (stereo unspecified), for which the GI50 in the assay with A498, with ACHN, in the assay on CCRF-CEM, in the assay on COLO 205, in the assay with EKVX and in the assay with HT-29 was > 100 µM (inactive) each time. For the same molecule, the GI50 in the assay with KM12, with Malme-3M, in the assay on OVCAR-4, with RXF 393, in the assay on SF-539 and in the assay with SK-MEL-2 was > 100 µM (inactive) throughout. For the same molecule, the GI50 with SK-MEL-5, with SN12C, in the assay on SNB-75, in the assay on SW-620 and in the assay with UACC-62 was > 100 µM (inactive) throughout.
In the case of `COc1ccc2[nH]c3c([N+](=O)[O-])ccc(NCCN(C)C)c3/c(=N/CCN(C)C)c2c1`, the GI50 in the assay on CCRF-CEM was 0.237 µM (active); in the assay on COLO 205, 2.01 µM (inactive); in the assay on EKVX, 2.24 µM (inactive); in the assay with HT-29, 1.77 µM (inactive); with KM12, 1.26 µM (inactive); with MDA-N, 1.75 µM (inactive). Further, the GI50 with Malme-3M is 2.58 µM (inactive); in the assay on OVCAR-4 it was 0.521 µM (active); in the assay with RXF 393, 1.03 µM (active); with SK-MEL-5, 1.86 µM (inactive); in the assay with SN12C, 1.37 µM (inactive); with SNB-75, 1.8 µM (inactive). Also, the GI50 is 1.04 µM (active) with SW-620, > 10 µM (inactive) in the assay on T47D and 7.23 µM (inactive) with UACC-62.
